pEC50: −log10 of the molar value.
Legend:
SARS = assay: microbe, parasite or virus in culture; format: cell-based, SARS-CoV; settings: Severe acute respiratory syndrome coronavirus, Vero, read-out: average EC50 (50% virus inhibitory concentration)
MERS = assay: microbe, parasite or virus in culture; format: cell-based, MERS-CoV; settings: Middle East respiratory syndrome-related coronavirus, Vero, read-out: average EC50 (50% virus inhibitory concentration)
SARS-CoV-2 = SARS-CoV-2 viral transcript levels by quantitative real-time PCR in Vero E6 cells; format: cell-based; settings: for pEC50: Severe acute respiratory syndrome coronavirus 2, Vero C1008, Vero E6 cells, compound added 3 hours after virus (100 TCID50), assayed 48 hours later, read-out: EC50, viral transcript copy number
in vitro = settings: African green monkey

SMILES | pEC50 (SARS) | pEC50 (MERS) | selectivity index (CC50/EC50) (SARS-CoV-2; SARS-CoV-2, Vero E6 cells) | pEC50 (SARS-CoV-2) | CC50 (in vitro)
Cc1cccc(/C=N/Nc2cc(N3CCOCC3)nc(OCCc3ccccn3)n2)c1 [apilimod dimesylate] | 5.43 | 4.86 | 9.1 | 5.66 | 20 µM
CCC(CC)COC(=O)[C@H](C)N[P@](=O)(OC[C@H]1O[C@@](C#N)(c2ccc3c(N)ncnn23)[C@H](O)[C@@H]1O)Oc1ccccc1 [remdesivir] |  |  |  | 6.15 | 205 µM

— US20210244743A1 (priority 2020, published 2021)
